Laboratory results as given in PubChem BioAssay (NCI).
Values joined by “and” are separate entries in the source; they are usually repeats but may differ in a detail not shown here. Equal entries are not always repeated.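 Dose response: 5 concentrations. Exposure: 48 h. Format: 96-well plates. Endpoint: linear interpolation; highest concentration if not reached. GI50 marks 50% less growth. TGI: concentration producing complete growth inhibition.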

Legend:
Assay in all cases: DTP human tumour cell line panel, 48 h; in the data active means GI50 below about 0.43 µM; inactive means the rest
CAKI-1 renal = system: CAKI-1 renal
A498 renal = system: A498 renal
OVCAR-3 ovarian = system: OVCAR-3 ovarian
SNB-19 CNS = system: SNB-19 CNS
OVCAR-8 ovarian = system: OVCAR-8 ovarian
SW-620 colon = system: SW-620 colon
NCI-H460 lung = system: NCI-H460 lung
HOP-92 NSCLC = system: HOP-92 NSCLC
KM12 colon = system: KM12 colon
MCF7 breast = system: MCF7 breast

CC(=O)N1CCN(C=S)CC1
> 100 µM: TGI (CAKI-1 renal) | TGI (A498 renal) | TGI (OVCAR-3 ovarian) | TGI (SNB-19 CNS) | TGI (OVCAR-8 ovarian) | TGI (SW-620 colon) | TGI (NCI-H460 lung) | TGI (HOP-92 NSCLC) | TGI (KM12 colon)

CCC12C=CCN3CCC4(C(=C(C(=O)OC)C1)Nc1ccccc14)[C@H]32 (some centres undefined)
> 100 µM: TGI (CAKI-1 renal) | TGI (OVCAR-3 ovarian) | TGI (KM12 colon)
87.7 µM: TGI (HOP-92 NSCLC)
79.4 µM: TGI (A498 renal)
41.9 µM: TGI (NCI-H460 lung)
75 µM: TGI (SNB-19 CNS)
86 µM: TGI (SW-620 colon)

N#CC1([N+](=O)[O-])C=C1c1ccccc1 (centres undefined)
41.6 µM: TGI (SW-620 colon)
> 100 µM: TGI (CAKI-1 renal) | TGI (OVCAR-3 ovarian) | TGI (SNB-19 CNS) | TGI (OVCAR-8 ovarian) | TGI (NCI-H460 lung) | TGI (KM12 colon)

COc1ccc2c(c1)O/C(=C\c1ccc([N+](=O)[O-])s1)C2=O
inactive: GI50 (A498 renal) > 27.4 µM | GI50 (SNB-19 CNS) > 22 µM | GI50 (OVCAR-8 ovarian) 2.19 µM | GI50 (NCI-H460 lung) 2.32 µM | GI50 (MCF7 breast) 0.621 µM | GI50 (HOP-92 NSCLC) 1570 nM
> 75.7 µM: TGI (A498 renal)
5.37 µM: TGI (HOP-92 NSCLC)
> 100 µM: TGI (SNB-19 CNS) | TGI (OVCAR-8 ovarian) | TGI (NCI-H460 lung) | TGI (MCF7 breast)

COC(=O)C(C(=O)C(=O)Nc1ccc(N)cc1[N+](=O)[O-])c1nc2ccc(Cl)cc2[nH]c1=O (centres undefined)
> 100 µM: TGI (CAKI-1 renal) | TGI (A498 renal) | TGI (OVCAR-3 ovarian) | TGI (SNB-19 CNS) | TGI (OVCAR-8 ovarian) | TGI (SW-620 colon) | TGI (NCI-H460 lung) | TGI (HOP-92 NSCLC) | TGI (KM12 colon)

N#CCCn1c(CCC(=O)Nc2ccc(Cl)cc2Cl)n[nH]c1=S
> 100 µM: TGI (CAKI-1 renal) | TGI (A498 renal) | TGI (OVCAR-3 ovarian) | TGI (SNB-19 CNS) | TGI (OVCAR-8 ovarian) | TGI (SW-620 colon) | TGI (NCI-H460 lung) | TGI (HOP-92 NSCLC) | TGI (KM12 colon)

CCCCCCC(=O)CC(=O)C(=O)Nc1ccccc1C
> 81.2 µM: TGI (NCI-H460 lung)
> 59.4 µM: TGI (SW-620 colon)
> 100 µM: TGI (CAKI-1 renal) | TGI (A498 renal) | TGI (OVCAR-3 ovarian) | TGI (SNB-19 CNS) | TGI (OVCAR-8 ovarian) | TGI (HOP-92 NSCLC) | TGI (KM12 colon)

N#CC1C(=O)NC(=O)C(C#N)C1c1ccc(Cl)c(Cl)c1 (centres undefined)
67 µM: TGI (OVCAR-3 ovarian)
36.8 µM: TGI (SW-620 colon)
> 100 µM: TGI (SNB-19 CNS) | TGI (OVCAR-8 ovarian) | TGI (NCI-H460 lung) | TGI (MCF7 breast) | TGI (HOP-92 NSCLC) | TGI (KM12 colon)
71.6 µM: TGI (CAKI-1 renal)

COn1cc(C(=O)N=C(SC)SC)c2ccccc21
55.5 µM: TGI (OVCAR-8 ovarian)
52.7 µM: TGI (KM12 colon)
51.5 µM: TGI (OVCAR-3 ovarian)
inactive: GI50 (CAKI-1 renal) 22.7 µM | GI50 (OVCAR-3 ovarian) 17.8 µM | GI50 (SNB-19 CNS) 40.2 µM | GI50 (OVCAR-8 ovarian) 18.5 µM | GI50 (SW-620 colon) 34.8 µM | GI50 (NCI-H460 lung) > 100 µM | GI50 (MCF7 breast) > 100 µM | GI50 (HOP-92 NSCLC) 27700 nM | GI50 (KM12 colon) 20.3 µM
> 100 µM: TGI (SNB-19 CNS) | TGI (SW-620 colon) | TGI (NCI-H460 lung) | TGI (MCF7 breast) | TGI (HOP-92 NSCLC)
63.8 µM: TGI (CAKI-1 renal)

O=C1OC(=O)C2C1C1C(c3ccccc3)=C(c3ccccc3)C2(O)C2C(=O)OC(=O)C12 (centres undefined)
> 100 µM: TGI (CAKI-1 renal) | TGI (A498 renal) | TGI (OVCAR-3 ovarian) | TGI (SNB-19 CNS) | TGI (OVCAR-8 ovarian) | TGI (SW-620 colon) | TGI (NCI-H460 lung) | TGI (HOP-92 NSCLC) | TGI (KM12 colon)

C/C(=N\NS(=O)(=O)c1ccccc1)c1ccc[n+]([O-])n1
> 100 µM: TGI (CAKI-1 renal) | TGI (A498 renal) | TGI (OVCAR-3 ovarian) | TGI (SNB-19 CNS) | TGI (OVCAR-8 ovarian) | TGI (SW-620 colon) | TGI (NCI-H460 lung) | TGI (HOP-92 NSCLC) | TGI (KM12 colon)

O=S1(=O)C=C(c2ccccc2)C(c2ccccc2)=C1
2.9 µM: TGI (OVCAR-3 ovarian)
3.2 µM: TGI (KM12 colon)
3.19 µM: TGI (OVCAR-8 ovarian) | TGI (HOP-92 NSCLC)
inactive: GI50 (CAKI-1 renal) 1.16 µM | GI50 (A498 renal) 1.47 µM | GI50 (OVCAR-3 ovarian) 1.56 µM | GI50 (SNB-19 CNS) 1.98 µM | GI50 (OVCAR-8 ovarian) 1.56 µM | GI50 (SW-620 colon) 1.07 µM | GI50 (NCI-H460 lung) 1.88 µM | GI50 (HOP-92 NSCLC) 1650 nM | GI50 (KM12 colon) 1.63 µM
4.23 µM: TGI (NCI-H460 lung)
3.25 µM: TGI (A498 renal)
4.63 µM: TGI (SNB-19 CNS)
2.63 µM: TGI (CAKI-1 renal)
2.39 µM: TGI (SW-620 colon)

Nc1nc(N)c(-c2ccc(Cl)cc2)c(/C=C/c2ccc([N+](=O)[O-])cc2)n1
inactive: GI50 (CAKI-1 renal) 4.92 µM | GI50 (A498 renal) 1.97 µM | GI50 (OVCAR-3 ovarian) 5.76 µM | GI50 (SNB-19 CNS) 16.1 µM | GI50 (OVCAR-8 ovarian) 4.77 µM | GI50 (SW-620 colon) 4.08 µM | GI50 (NCI-H460 lung) 3.4 µM | GI50 (MCF7 breast) 3.16 µM | GI50 (KM12 colon) 23.4 µM
31.1 µM: TGI (OVCAR-3 ovarian)
> 100 µM: TGI (CAKI-1 renal) | TGI (SNB-19 CNS) | TGI (OVCAR-8 ovarian) | TGI (SW-620 colon) | TGI (NCI-H460 lung) | TGI (MCF7 breast) | TGI (KM12 colon)
16.5 µM: TGI (A498 renal)

C[C@H](CCCOS(C)(=O)=O)[C@H]1CC[C@H]2[C@@H]3CC[C@@H]4C[C@H](OS(C)(=O)=O)CC[C@]4(C)[C@H]3CC[C@]12C
2080 µM: TGI (NCI-H460 lung)
692 µM: TGI (MCF7 breast)
> 2500 µM: TGI (SNB-19 CNS) | TGI (SW-620 colon) | TGI (KM12 colon)
inactive: GI50 (CAKI-1 renal) 954 µM | GI50 (A498 renal) 664 µM | GI50 (OVCAR-3 ovarian) 2170 µM | GI50 (SNB-19 CNS) 929 µM | GI50 (OVCAR-8 ovarian) 582 µM | GI50 (SW-620 colon) > 2500 µM | GI50 (NCI-H460 lung) 597 µM | GI50 (MCF7 breast) 323 µM | GI50 (KM12 colon) 1230 µM

CN(C)c1ccc(/C=c2\sc3nnc(Cc4ccccc4)n3c2=O)cc1
> 100 µM: TGI (CAKI-1 renal) | TGI (A498 renal) | TGI (OVCAR-3 ovarian) | TGI (SNB-19 CNS) | TGI (OVCAR-8 ovarian) | TGI (NCI-H460 lung) | TGI (HOP-92 NSCLC) | TGI (KM12 colon)
> 10 µM and 29.2 µM: TGI (SW-620 colon)
inactive: GI50 (CAKI-1 renal) > 100 µM | GI50 (A498 renal) > 100 µM | GI50 (OVCAR-3 ovarian) > 100 µM | GI50 (SNB-19 CNS) > 100 µM | GI50 (OVCAR-8 ovarian) > 100 µM | GI50 (SW-620 colon) > 10 µM | GI50 (NCI-H460 lung) > 100 µM | GI50 (KM12 colon) > 100 µM

C=C1CC(CC(=O)C(C)CC2CC(=C)C(=O)O2)OC1=O (centres undefined)
24.2 µM: TGI (SW-620 colon)
22.6 µM: TGI (KM12 colon)
> 100 µM: TGI (A498 renal) | TGI (SNB-19 CNS) | TGI (OVCAR-8 ovarian) | TGI (NCI-H460 lung)
32.1 µM: TGI (HOP-92 NSCLC)
37 µM: TGI (OVCAR-3 ovarian)

CCc1cccc(CC)c1NC(=O)C1=CNC(C)=C(C(=O)Nc2c(CC)cccc2CC)C1c1ccc(O)c(OC)c1 (centres undefined)
> 100 µM: TGI (CAKI-1 renal) | TGI (SNB-19 CNS) | TGI (OVCAR-8 ovarian) | TGI (SW-620 colon) | TGI (HOP-92 NSCLC)
76.4 µM: TGI (A498 renal)
98.8 µM: TGI (NCI-H460 lung)
87.4 µM: TGI (KM12 colon)
53.9 µM: TGI (OVCAR-3 ovarian)

CCC(=O)Oc1ccc(/C=N/NC(N)=S)nc1
> 100 µM: TGI (CAKI-1 renal) | TGI (A498 renal) | TGI (OVCAR-3 ovarian) | TGI (SNB-19 CNS) | TGI (OVCAR-8 ovarian) | TGI (SW-620 colon) | TGI (MCF7 breast) | TGI (KM12 colon)
46.6 µM: TGI (NCI-H460 lung)
inactive: GI50 (CAKI-1 renal) 4.97 µM | GI50 (A498 renal) 23.3 µM | GI50 (OVCAR-3 ovarian) 3.37 µM | GI50 (SNB-19 CNS) 14.2 µM | GI50 (OVCAR-8 ovarian) 3.51 µM | GI50 (SW-620 colon) 7.67 µM | GI50 (NCI-H460 lung) 4.04 µM | GI50 (MCF7 breast) 1.88 µM | GI50 (KM12 colon) 4.69 µM

CC1CCC2[C@@H](C)COC3O[C@]4(C)CCC1C32OO4 (some centres undefined)
> 100 µM: TGI (CAKI-1 renal) | TGI (A498 renal) | TGI (OVCAR-3 ovarian) | TGI (SNB-19 CNS) | TGI (OVCAR-8 ovarian) | TGI (SW-620 colon) | TGI (NCI-H460 lung) | TGI (HOP-92 NSCLC) | TGI (KM12 colon)
